Data as given in article PMC4920673, “Nitroimidazole carboxamides as antiparasitic agents targeting Giardia lamblia, Entamoeba histolytica and Trichomonas vaginalis” (European Journal of Medicinal Chemistry, 2016).
Converted amounts (≈) assume the structure as drawn. Read-outs that look alike come from different tables or passages of the source.

Experiments:
[1] = test system: HEK293 cells; assay: Resazurin cytotoxicity assay, HEK293; format: cell-based, Human; details: for Selectivity index (CC50/EC50): HEK293 CC50 / G. lamblia WB EC50
Experimental: (§1) Human HEK293 and HepG2 cells were seeded at 3000 and 5000 cells per well in 384-well plates, respectively. Cells were cultured in Dulbecco's modified Eagle's medium with 10% FBS for 24 h at 37 °C, 5% CO2. A dilution series of compounds was added, with the highest concentration of 100 μM. […] After 24 h incubation with the compounds, 5 μM resazurin was added into each well and incubated at 37 °C for 2 h. As a negative control, 1% Triton X-100 was added into the culture media to lyse all of the cells. The fluorescence intensity was read using Polarstar Omega with excitation/emission 560/590 nm. Data were analysed with GraphPad Prism 6 software (La Jolla, California USA) to calculate CC50 values.

[2] = test system: C. difficile NAP1/027 (ATCC BAA-1803); assay: Broth microdilution MIC assay, C. difficile NAP1/027; format: cell-based, Clostridium difficile; details: strain NAP1/027; for MIC: Clostridioides difficile, ATCCBAA1803
Experimental: Clostridium difficile strains (630, ATCC BAA-1382 and NAP1/027, ATCC BAA-1803) were maintained as previously described. The minimum inhibition concentration (MIC) was determined according to the CLSI Methods with modifications in broth and inoculum for C. difficile, [25], [26]. Briefly, compounds and control antibiotics were serially diluted two-fold in 96-well plates (Non-binding surface, Corning). The plates were placed in a Coy anaerobic chamber (5% H2, 10% CO2, 85% N2) overnight to reduce the medium. C. difficile bacteria from BHIS(TA) agar plates were cultured anaerobically in BHIS at 37 °C overnight. […]. Compound concentration ranged from 64 to 0.03 μg/mL. An antibiotic standard, a positive growth control (no compound) and a sterility control (no bacteria) were included on each 96 well plate. Plates were covered and incubated at 37 °C for 24 h. MICs for each strain were determined as the lowest concentration without visible growth. Variance between replicates was typically within one 2-fold dilution. Median MICs are reported with a range given when the median MIC was between two tested concentrations.

[3] = test system: G. lamblia WB (MtzS); assay: ATP-bioluminescence growth/survival EC50 assay, G. lamblia WB; details: for S.I (CC50/EC50): average cytotoxicity against HEK293 and HepG2 / G. lamblia WB activity
Experimental: (§2) Compounds were screened for antiparasitic activity using an ATP-bioluminescence based assay for cell growth and survival, [24]. […] Viable cell numbers were determined in triplicate using the CellTiter-Glo Luminescent Cell Viability Assay.

[4] = test system: E. histolytica HM1:IMSS; assay: ATP-bioluminescence growth/survival EC50 assay, E. histolytica; format: cell-based, Entamoeba histolytica
Experimental: as §2

[5] = test system: HepG2 cells; assay: Resazurin cytotoxicity assay, HepG2; format: cell-based, Human; details: for S.I (CC50/EC50), second value of a split cell: HepG2 CC50 / G. lamblia WB EC50
Experimental: as §1

[6] = test system: C. difficile 630 (ATCC BAA-1382); assay: Broth microdilution MIC assay, C. difficile 630; format: cell-based, Clostridium difficile; details: for MIC: Clostridioides difficile, ATCCBAA1382
Experimental: Clostridium difficile strains (630, ATCC BAA-1382 and NAP1/027, ATCC BAA-1803) were maintained as previously described. The minimum inhibition concentration (MIC) was determined according to the CLSI Methods with modifications in broth and inoculum for C. difficile, [25], [26]. Briefly, compounds and control antibiotics were serially diluted two-fold in 96-well plates (Non-binding surface, Corning). […] C. difficile bacteria from BHIS(TA) agar plates were cultured anaerobically in BHIS at 37 °C overnight. […] An antibiotic standard, a positive growth control (no compound) and a sterility control (no bacteria) were included on each 96 well plate. Plates were covered and incubated at 37 °C for 24 h. MICs for each strain were determined as the lowest concentration without visible growth. […] Median MICs are reported with a range given when the median MIC was between two tested concentrations.

[7] = test system: T. vaginalis F1623; assay: ATP-bioluminescence growth/survival EC50 assay, T. vaginalis; format: cell-based, Trichomonas vaginalis
Experimental: as §2

[8] = test system: G. lamblia 713M3 (MtzR); assay: ATP-bioluminescence growth/survival EC50 assay, G. lamblia 713M3; format: cell-based, Giardia lamblia
Experimental: as §2

[9] = Resazurin cytotoxicity assay, HEK293; format: cell-based, Human; details: human, 24 h
Experimental: as §1

[10] = Plasma protein binding by ultrafiltration; format: in vitro ADME; details: human, pooled human plasma (100%), 5 μM, 100% human plasma, 37 °C, 30 min, ultrafiltration; for fraction unbound at 30 min, 5 μM: read-out: Plasma protein binding (% bound); for fraction unbound at 0.5 h, 5 µM: read-out: Plasma protein binding (% bound) (converted)
Experimental: Plasma Protein Binding (PPB) was performed using an Ultrafiltration method, [28]. […] Samples were incubated at […] for 30 min, then centrifuged at 14,000 × g for 8 min, with the clear supernatant transferred to a vial for LC/MS/MS analysis. […] The fraction of unbound compound was calculated by determining the concentration of the filtered sample and the concentration of unfiltered sample. […] LC/MS/MS parameters are detailed in the supplementary information (Supplementary Table 1).

[11] = Resazurin cytotoxicity assay, HepG2; format: cell-based, Human; details: human, 24 h
Experimental: as §1

[12] = read-out: EC50 G. lamblia WB, MtzS strain WB, minimum n = 3
[13] = MtzS, minimum n = 3, read-out: EC50 E. histolytica HM1:IMSS
[14] = strain 630, MtzS, median of n = 4
[15] = MtzS, minimum n = 3, read-out: EC50 T. vaginalis F1623
[16] = MtzR strain 713M3, minimum n = 3, read-out: EC50 G. lamblia 713M3
[17] = HEK293 cells, highest concentration 100 μM, n = 3, read-out: CC50 HEK 293
[18] = Trichomonas vaginalis, read-out: EC50 T. vaginalis F1623, MtzS, minimum n = 3
[19] = Trichomonas vaginalis, read-out: pEC50 ± SE T. vaginalis F1623, MtzS (converted)
[20] = Giardia duodenalis, read-out: EC50 G. lamblia WB, MtzS strain WB, minimum n = 3
[21] = Giardia duodenalis, read-out: pEC50 ± SE G. lamblia WB, MtzS strain WB (converted)
[22] = Entamoeba histolytica, read-out: EC50 E. histolytica HM1:IMSS
[23] = Entamoeba histolytica, read-out: pEC50 ± SE E. histolytica HM1:IMSS (converted)
[24] = Giardia duodenalis, read-out: EC50 G. lamblia 713M3, MtzR strain 713M3, minimum n = 3
[25] = Giardia duodenalis, read-out: pEC50 ± SE G. lamblia 713M3, MtzR strain 713M3 (converted)
[26] = HepG2 cells, highest concentration 100 μM, n = 3, read-out: CC50 Hep G2
[27] = strain 630, MtzS, median of n = 4, read-out: MIC C. difficile 630

Molecule: 1-(cyclohexylmethyl)-4-nitro-1H-imidazole-2-carboxamide [Compound 13g]
- CC50 [1]: > 100 µM
- MIC C. difficile NAP1/027 [2]: >64 µg/mL
- pEC50 ± SE G. lamblia WB ([3]; MtzS strain WB): 5.30 ± 0.06
- S.I (CC50/EC50) [3]: >20
- EC50 [3, 12]: 5 µM
- pEC50 ± SE E. histolytica HM1:IMSS ([4]; MtzS): < 4.3
- EC50 [4, 13]: > 50 µM
- CC50 [5]: > 100 µM
- MIC C. difficile 630 [6, 14]: >64 µg/mL

Molecule: 1-(cyclopropylmethyl)-4-nitro-1H-imidazole-2-carboxamide [Compound 13f]
- CC50 [1]: > 100 µM
- MIC C. difficile NAP1/027 [2]: >64 µg/mL
- pEC50 ± SE G. lamblia WB ([3]; MtzS strain WB): < 4.3
- EC50 [3, 12]: > 50 µM
- pEC50 ± SE E. histolytica HM1:IMSS ([4]; MtzS): < 4.3
- EC50 [4, 13]: > 50 µM
- CC50 [5]: > 100 µM
- MIC C. difficile 630 [6, 14]: >64 µg/mL

Molecule: Cn1c([N+](=O)[O-])cnc1C(=O)NCc1ccc(OC(F)(F)F)cc1 [Compound 8b, 1-methyl-5-nitro-N-(4-(trifluoromethoxy)benzyl)-1H-imidazole-2-carboxamide]
- CC50 [1]: > 100 µM
- pEC50 ± SE T. vaginalis F1623 ([7]; MtzS): 4.88 ± 0.01
- EC50 [7, 15]: 13 µM
- pEC50 ± SE G. lamblia WB ([3]; MtzS strain WB): 5.52 ± 0.03
- S.I (CC50/EC50) [3]: >33
- EC50 [3, 12]: 3 µM
- pEC50 ± SE E. histolytica HM1:IMSS ([4]; MtzS): 4.85 ± 0.02
- EC50 [4, 13]: 14 µM
- pEC50 ± SE G. lamblia 713M3 ([8]; MtzR strain 713M3): 5.06 ± 0.29
- EC50 [8, 16]: 8.8 µM
- CC50 [5]: > 100 µM
- MIC C. difficile 630 [6, 14]: 32 µg/mL (≈ 93 µM)

Molecule: Cn1c([N+](=O)[O-])cnc1C(=O)NCc1cccc(OC(F)(F)F)c1 [Compound 8c, 1-methyl-5-nitro-N-(3-(trifluoromethoxy)benzyl)-1H-imidazole-2-carboxamide]
- CC50 [1]: > 100 µM
- MIC C. difficile NAP1/027 [2]: 64 µg/mL (≈ 186 µM)
- pEC50 ± SE T. vaginalis F1623 ([7]; MtzS): 5.09 ± 0.09
- EC50 [7, 15]: 8.1 µM
- pEC50 ± SE G. lamblia WB ([3]; MtzS strain WB): 5.51 ± 0.02
- S.I (CC50/EC50) [3]: >32
- EC50 [3, 12]: 3.1 µM
- pEC50 ± SE E. histolytica HM1:IMSS ([4]; MtzS): 4.77 ± 0.02
- EC50 [4, 13]: 17 µM
- pEC50 ± SE G. lamblia 713M3 ([8]; MtzR strain 713M3): 5.84 ± 0.69
- EC50 [8, 16]: 1.5 µM
- CC50 [5]: > 100 µM
- MIC C. difficile 630 [6, 14]: 32 to 64 µg/mL

Molecule: Cn1c([N+](=O)[O-])cnc1C(=O)NC1CCCCC1 [Compound 8k, N-cyclohexyl-1-methyl-5-nitro-1H-imidazole-2-carboxamide]
- CC50 at 24 h [9, 17]: > 100 µM
- MIC [2]: > 64 µg/mL
- fraction unbound at 30 min, 5 μM [10]: ≤ 0.06
- fraction unbound at 0.5 h, 5 µM [10]: 0.06
- EC50 [7, 18]: 11 µM
- EC50 [7, 19]: 10.7 µM
- EC50 [3, 20]: 4.9 µM
- EC50 [3, 21]: 4.9 µM
- S.I (CC50/EC50) [3]: >20
- EC50 [4, 22]: 3.7 µM
- EC50 [4, 23]: 3.72 µM
- EC50 [8, 24]: 5.1 µM
- EC50 [8, 25]: 5.01 µM
- CC50 at 24 h [11, 26]: > 100 µM
- MIC [6, 27]: > 64 µg/mL

Molecule: O=C(NCc1ccc(OC(F)(F)F)cc1)c1ncc([N+](=O)[O-])[nH]1 [Compound 12b, 5-nitro-N-(4-(trifluoromethoxy)benzyl)-1H-imidazole-2-carboxamide]
- Selectivity index (CC50/EC50) [1]: > 500
- CC50 at 24 h ([9]; highest concentration 100 μM, n = 3, read-out: CC50 HEK 293): > 100 µM
- MIC [2]: 8 to 16 µg/mL (≈ 24.2 to 48.5 µM)
- EC50 [7, 18]: 2.2 µM
- EC50 [7, 19]: 2.24 µM
- EC50 [3, 20]: 0.2 µM
- EC50 [3, 21]: 0.245 µM
- EC50 [4, 22]: 4.5 µM
- EC50 [4, 23]: 4.47 µM
- EC50 [8, 24]: 2.5 µM
- EC50 [8, 25]: 2.51 µM
- S.I (CC50/EC50), second value of a split cell [5]: 465
- CC50 at 24 h [11, 26]: 93 µM
- CC50 at 24 h ([11]; HepG2 cells, read-out: pCC50 ± SE Hep G2 (converted)): 93.3 µM
- MIC [6, 27]: 16 µg/mL (≈ 48.5 µM)

Molecule: O=C(NC1CCCCC1)c1ncc([N+](=O)[O-])[nH]1 [Compound 12k, N-cyclohexyl-5-nitro-1H-imidazole-2-carboxamide]
- CC50 at 24 h [9, 17]: > 100 µM
- MIC [2]: 8 µg/mL (≈ 33.6 µM)
- fraction unbound at 30 min, 5 μM [10]: ≤ 0.06
- fraction unbound at 0.5 h, 5 µM [10]: 0.01
- EC50 [7, 18]: 2.4 µM
- EC50 [7, 19]: 2.45 µM
- EC50 [3, 21]: 0.603 µM
- S.I (CC50/EC50) [3]: >167
- EC50 [4, 22]: 2.8 µM
- EC50 [4, 23]: 2.82 µM
- EC50 [8, 24]: 5.5 µM
- EC50 [8, 25]: 5.5 µM
- CC50 at 24 h [11, 26]: > 100 µM
- MIC ([6]; 630 and NAP1/027 strains together or strain not given, read-out: MIC C. difficile): 4 to 16 µg/mL (≈ 16.8 to 67.2 µM)
- MIC [6, 27]: 8 µg/mL (≈ 33.6 µM)

Molecule: O=C(NO)c1nc([N+](=O)[O-])cn1Cc1ccc(OC(F)(F)F)cc1 [Compound 14d, N-hydroxy-4-nitro-1-(4-(trifluoromethoxy)benzyl)-1H-imidazole-2-carboxamide]
- Selectivity index (CC50/EC50) [1]: 7
- CC50 at 24 h [9, 17]: 36 µM
- CC50 at 24 h ([9]; HEK293 cells, read-out: pCC50 ± SE HEK293 (converted)): 36.3 µM
- MIC [2]: 16 µg/mL (≈ 46.2 µM)
- EC50 [3, 20]: 5.1 µM
- EC50 [3, 21]: 5.13 µM
- EC50 [4, 22]: 10 µM
- EC50 [4, 23]: 10 µM
- S.I (CC50/EC50), second value of a split cell [5]: > 20
- CC50 at 24 h ([11]; highest concentration 100 μM, n = 3, read-out: CC50 Hep G2): > 100 µM
- MIC [6, 27]: 16 µg/mL (≈ 46.2 µM)
